Data on 17 compounds can be found in ChEMBL document CHEMBL2407043, “Hydantoin based inhibitors of MMP13--discovery of AZD6605” (Bioorg Med Chem Lett, 2013).

For orientation: half-life means the time needed for the level to fall by half in the phase considered. What is called IC50 is the concentration that gives 50% inhibition. As usually defined, the inhibition in vivo is how much of the control response was suppressed. By bioavailability is commonly meant the share of a dose that reaches the circulation, judged against a reference dose that is usually intravenous. One may read the microsomal CLint as the capacity of the preparation to metabolise the compound, expressed as a volume cleared per time. High values mean faster metabolism, low ones greater metabolic stability. The term fraction unbound denotes free concentration divided by total concentration. Broadly, the logD is the decadic logarithm of the distribution of all forms, ionised or not, between an organic phase and buffer at a given pH. Read a high logD as higher lipophilicity. Usually Papp A→B stands for how fast a substance crosses the layer from the apical side. By Papp B→A is commonly meant the apparent permeability from the basolateral to the apical side of a cell layer. Usually solubility stands for the concentration that dissolves in the medium under given conditions.

The nature of data set [1]: Half life in rat. To be noted: in vivo. In kind it is ADME, organism-based.
Data set [2] can be described thus: Volume of distribution at steady state in rat at 2 mg/kg, iv and 5 mg/kg, po. In kind it is ADME, organism-based. To be noted: in vivo, read-out: Vdss.
The nature of data set [3]: Thermodynamic solubility of the compound in phosphate buffer at pH 7.4 at 25 degC after 24 hrs. To be noted: read-out: Therm_solubility.
Data set [4] is described as follows: Clearance in rat at 2 mg/kg, iv. The conditions noted are these: in vivo. In kind it is ADME, organism-based. Details: dose 2 mg/kg, route intravenous.
For another data set, the target named is Cytochrome P450 3A4 (Homo sapiens, UniProt P08684). Kind of data set: Inhibition of human CYP3A4. It is filed as ADME.
Sequence of Cytochrome P450 3A4 (P08684 whole entry): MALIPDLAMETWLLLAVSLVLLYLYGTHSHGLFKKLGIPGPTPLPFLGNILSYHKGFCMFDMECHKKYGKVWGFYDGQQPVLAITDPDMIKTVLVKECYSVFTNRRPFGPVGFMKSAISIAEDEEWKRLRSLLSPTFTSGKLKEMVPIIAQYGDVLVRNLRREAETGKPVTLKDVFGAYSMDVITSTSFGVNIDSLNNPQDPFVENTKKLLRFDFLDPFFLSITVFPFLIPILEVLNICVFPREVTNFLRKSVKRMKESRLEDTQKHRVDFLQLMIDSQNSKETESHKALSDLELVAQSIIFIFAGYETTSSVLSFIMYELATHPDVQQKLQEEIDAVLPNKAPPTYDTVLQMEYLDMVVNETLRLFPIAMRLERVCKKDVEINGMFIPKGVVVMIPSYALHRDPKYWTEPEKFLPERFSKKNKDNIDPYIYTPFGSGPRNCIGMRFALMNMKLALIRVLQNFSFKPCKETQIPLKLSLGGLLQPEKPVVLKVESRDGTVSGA
The test system of a further data set is Cavia porcellus. Nature of the data set: Inhibition of cartilage loss in Dunkin Hartley guinea pig spontaneous osteoarthritis model at 0.06 mg/kg/day, sc after 12 weeks (reference value: 23%). In kind it is functional. The conditions noted are these: 2016 h, route subcutaneous.
A short description of data set [5]: Oral bioavailability in rat at 3 to 10 mg/kg. The conditions noted are these: in vivo. It is filed as ADME, organism-based.
Data set [6] can be described thus: in vitro. To be noted: human, liver microsomes. (Liver microsomes are a subcellular fraction often used to study metabolism.)
Data set [7] is described as follows: Half life in dog at 0.5 mg/kg, iv and 1 mg/kg, po. In kind it is ADME, organism-based, Canis lupus familiaris. To be noted: in vivo.
The nature of data set [8]: Fraction unbound in human plasma. In kind it is ADME, cell-free.
Data set [9] is described as follows: Oral bioavailability in dog at 1 mg/kg. It is filed as ADME, organism-based, Canis lupus familiaris. The conditions noted are these: in vivo.
Data set [10] can be described thus: Volume of distribution at steady state in dog at 0.5 mg/kg, iv and 1 mg/kg, po. In kind it is ADME, organism-based, Canis lupus familiaris. To be noted: in vivo, read-out: Vdss.
Another data set in a line: physchem. To be noted: buffer, pH 7.4.
The nature of data set [11]: in vitro. To be noted: human, Caco-2.
The nature of data set [12]: Apparent permeability across basolateral to apical side in human Caco2 cells at 10 uM. In kind it is ADME, cell-based. The conditions noted are these: Caco-2. In general terms: Caco-2 cells form a polarised layer with tight junctions and transporters.
A short description of data set [13]: Clearance in dog at 0.5 mg/kg, iv and 1 mg/kg, po. In kind it is ADME, organism-based, Canis lupus familiaris. To be noted: in vivo.
Data set [14] can be described thus: Half life in rat at 2 mg/kg, iv and 5 mg/kg, po. In kind it is ADME, organism-based. The conditions noted are these: in vivo.
Data set [15] is described as follows: Solubility of compound in fasted state simulated intestinal fluid. It is filed as physicochemical.
Data set [16] can be described thus: Intrinsic clearance in human hepatocytes measured per 10^6 cells. To be noted: read-out: CLH. In kind it is ADME, cell-based, Hepatocyte.
The nature of data set [17]: Fraction unbound in dog plasma. It is filed as ADME, cell-free, Canis lupus familiaris.
A short description of data set [18]: Oral bioavailability in rat at 5 mg/kg. It is filed as ADME, organism-based. To be noted: in vivo.
Data set [19] in a line: Fraction unbound in rat plasma. In kind it is ADME, cell-free.
Data set [20] in a line: Clearance in rat at 2 mg/kg, iv and 5 mg/kg, po. In kind it is ADME, organism-based. The conditions noted are these: in vivo.
The target of data set [21] is Matrix metalloproteinase-14 (Homo sapiens, UniProt P50281).

≈ marks a conversion by molar mass, not a printed value.

As for `C[C@]1(CS(=O)(=O)N2CCN(c3ncc(OCc4cc(C(F)(F)F)no4)cn3)CC2)NC(=O)NC1=O`, the half-life in data set [1] was 3.3 h. Further, the Vd in data set [2] was determined as 0.5 L/kg. The solubility thermodynamic at 24 h in data set [3] was determined as 3.1 µM (≈ 1.61 µg/mL). The clearance in data set [4] stood at 9.4 mL/min/kg.
Regarding `O=CN(O)[C@@H](CCCc1ncccn1)CS(=O)(=O)N1CCN(c2ccc(C(F)(F)F)cn2)CC1`, at Cytochrome P450 3A4, the IC50 is 1000 nM.
As for `O=CN(O)[C@@H](CCc1ncccn1)CS(=O)(=O)N1CCN(c2ccc(OCC(F)(F)F)cn2)CC1`, in the data set with Cavia porcellus, the inhibition in vivo at 0.06 mg/kg/day came to 76%.
With `C[C@]1(CS(=O)(=O)N2CCC(Oc3ccc(OCc4ncccn4)cc3)CC2)NC(=O)NC1=O`, the solubility thermodynamic at 24 h in data set [3] is 560 µM (≈ 266 µg/mL).
On the same count and under the same terms, as for `Cc1cc(COc2cnc(N3CCN(S(=O)(=O)C[C@@]4(C)NC(=O)NC4=O)CC3)nc2)n(C)n1`, the figure is 32 µM (≈ 15.3 µg/mL).
Take `C[C@]1(CS(=O)(=O)N2CCN(c3ncc(OCc4cncs4)cn3)CC2)NC(=O)NC1=O`: the solubility thermodynamic at 24 h in [3] turned out to be 49 µM (≈ 22.9 µg/mL).
In turn, `Cc1cc(COc2cnc(N3CCN(S(=O)(=O)C[C@@]4(C)NC(=O)NC4=O)CC3)nc2)on1` gave a half-life in data set [1] of 0.67 h. In addition, the bioavailability in data set [5] worked out at 37%. Besides, the Vd in data set [2] amounted to 0.5 L/kg. Besides, the solubility thermodynamic at 24 h in data set [3] came out at 13 µM (≈ 6.05 µg/mL). In “in vitro [6]”, this compound returned a microsomal CLint of less than 2 µL/min/mg. In [4], this compound came in with a clearance of 13.4 mL/min/kg.
`CCc1cc(COc2cnc(N3CCN(S(=O)(=O)C[C@@]4(C)NC(=O)NC4=O)CC3)nc2)on1` yielded a microsomal CLint in “in vitro [6]” of less than 2 µL/min/mg.
Consider `C[C@]1(CS(=O)(=O)N2CCN(c3ncc(OCc4ccc(C(F)(F)F)o4)cn3)CC2)NC(=O)NC1=O`, for which the half-life in [7] was 10.6 h; in data set [1] it was 2.6 h; in data set [14] it was 2.6 h. Further, the free fraction (fraction unbound) in [8] is 0.06; in data set [17] it was 0.08; in [19] it was 0.08. The values for the bioavailability in data set [9], in data set [5] and in data set [18] were 51%, 100% and 100%, respectively. In addition, the figures for the Vd in data set [10] and in [2] were 1.2 L/kg and 1.3 L/kg, respectively. In the data set “physchem”, this compound came in with a log distribution coefficient (logD) of 2.3. Further, the Papp A→B at 10 µM in the data set “in vitro [11]” was found to be 9 ×10⁻⁶ cm/s. The Papp B→A at 10 µM in [12] is 52 ×10⁻⁶ cm/s. The solubility thermodynamic at 24 h in data set [3] stood at 11 µM (≈ 5.7 µg/mL). This compound returned a microsomal CLint in the data set “in vitro [6]” of 7 µL/min/mg. Further, the results for the clearance in [13], in data set [4] and in [20] were 1.3 mL/min/kg, 6.3 mL/min/kg and 6.3 mL/min/kg, respectively. Further, the solubility in [15] was 26.5 µM (≈ 13.7 µg/mL). Also, the hepatocyte CLint in data set [16] is less than 2 µL/min/1e6 cells.
With `C[C@]1(CS(=O)(=O)N2CCN(c3ncc(OCc4cnc(C#N)s4)cn3)CC2)NC(=O)NC1=O`, the half-life in [1] is 0.23 h. Also, the bioavailability in [5] was 6%. In addition, the Vd in data set [2] was found to be 0.5 L/kg. The solubility thermodynamic at 24 h in [3] was found to be 14 µM (≈ 6.9 µg/mL). This compound showed a microsomal CLint in the data set “in vitro [6]” of 16 µL/min/mg. Moreover, the clearance in data set [4] worked out at 97.3 mL/min/kg.
As to `CCCOc1ccc(OC2CCN(S(=O)(=O)C[C@@]3(C)NC(=O)NC3=O)CC2)cc1`, the IC50 in data set [21] was greater than 10000 nM.
As to `C[C@]1(CS(=O)(=O)N2CCC(Oc3ccc(OCc4ccccc4)cc3)CC2)NC(=O)NC1=O`, the solubility thermodynamic at 24 h in data set [3] was less than 0.8 µM.
As for `C[C@]1(CS(=O)(=O)N2CCC(Oc3ccc(OCc4ccc(S(C)(=O)=O)cc4)cc3)CC2)NC(=O)NC1=O`, the solubility thermodynamic at 24 h in [3] came to 3.1 µM (≈ 1.71 µg/mL). This compound showed a half-maximal inhibitory concentration (IC50) in [21] of 62 nM.
For the compound `C[C@]1(CS(=O)(=O)N2CCC(Oc3ccc(OCc4ccc(C#N)cc4)cc3)CC2)NC(=O)NC1=O`, the solubility thermodynamic at 24 h in data set [3] was determined as 1.8 µM (≈ 0.897 µg/mL).
On the same count and under the same terms, the result for `C[C@]1(CS(=O)(=O)N2CCC(Oc3ccc(OCc4cccc(C#N)c4)cc3)CC2)NC(=O)NC1=O` reads 4.4 µM (≈ 2.19 µg/mL).
In the case of `COc1ccc(COc2ccc(OC3CCN(S(=O)(=O)C[C@@]4(C)NC(=O)NC4=O)CC3)cc2)cc1`, the solubility thermodynamic at 24 h in data set [3] amounted to 1.2 µM (≈ 0.604 µg/mL). In data set [21], this compound displayed an IC50 of 1080 nM.
As for `C[C@]1(CS(=O)(=O)N2CCC(Oc3ccc(OCc4ccc(F)cc4)cc3)CC2)NC(=O)NC1=O`, in data set [21], half-maximal inhibition (IC50) was put at 7730 nM.
